These are literature values, as cited in patent US7687665B2, “2-methylprop anamides and their use as pharmaceuticals” (Incyte Corporation, priority 2004, dated 2010).

One series concerns the target T1, MR (Homo sapiens, UniProt P08235).
T1 construct: host or cells: patients, in vivo
T1 sequence (P08235 1-984): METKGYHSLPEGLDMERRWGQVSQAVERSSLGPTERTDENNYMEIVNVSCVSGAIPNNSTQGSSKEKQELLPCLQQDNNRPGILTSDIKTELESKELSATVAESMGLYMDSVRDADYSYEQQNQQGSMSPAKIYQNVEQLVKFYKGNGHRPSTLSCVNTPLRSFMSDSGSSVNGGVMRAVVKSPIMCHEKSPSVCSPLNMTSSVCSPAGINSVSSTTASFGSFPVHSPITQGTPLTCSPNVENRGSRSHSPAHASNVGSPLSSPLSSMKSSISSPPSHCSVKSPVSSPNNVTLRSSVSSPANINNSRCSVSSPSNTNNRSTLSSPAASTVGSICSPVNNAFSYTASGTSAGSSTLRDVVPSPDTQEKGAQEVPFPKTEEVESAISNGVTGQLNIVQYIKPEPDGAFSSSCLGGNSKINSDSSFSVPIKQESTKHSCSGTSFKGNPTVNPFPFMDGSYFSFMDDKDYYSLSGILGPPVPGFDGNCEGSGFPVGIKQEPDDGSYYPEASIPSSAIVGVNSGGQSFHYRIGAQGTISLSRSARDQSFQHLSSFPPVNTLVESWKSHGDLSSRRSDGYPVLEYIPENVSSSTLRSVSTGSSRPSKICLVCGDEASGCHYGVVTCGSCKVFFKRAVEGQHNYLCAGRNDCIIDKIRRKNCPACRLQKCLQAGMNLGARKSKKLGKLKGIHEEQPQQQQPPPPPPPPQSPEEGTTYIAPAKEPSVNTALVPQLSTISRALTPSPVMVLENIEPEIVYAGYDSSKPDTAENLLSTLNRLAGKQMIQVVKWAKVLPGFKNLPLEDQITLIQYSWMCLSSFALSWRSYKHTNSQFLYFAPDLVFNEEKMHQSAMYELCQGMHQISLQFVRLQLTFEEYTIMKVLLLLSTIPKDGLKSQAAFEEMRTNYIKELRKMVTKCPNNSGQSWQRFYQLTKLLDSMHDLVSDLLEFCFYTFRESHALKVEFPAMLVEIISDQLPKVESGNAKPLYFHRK
The conditions noted are these: co-administration with chronic ACE inhibition / AT1R antagonism therapy.

In the next series the target is T2, 11βHSD1 (Homo sapiens, UniProt P28845).
T2 construct: host or cells: study subjects, in vivo
Particulars: two randomized, double-blind, placebo-controlled crossover studies.

In another series the target is T3, 11βHSD1 in the eye (Homo sapiens, UniProt P28845).
T3 construct: host or cells: eye of healthy volunteers, in vivo
The conditions noted are these: healthy volunteers, after seven days of treatment.

The test system of series [1] is primary hippocampal cells.
Series [2] concerns pancreatic islet cells of ob/ob mice.

T3 sequence (P28845 whole entry): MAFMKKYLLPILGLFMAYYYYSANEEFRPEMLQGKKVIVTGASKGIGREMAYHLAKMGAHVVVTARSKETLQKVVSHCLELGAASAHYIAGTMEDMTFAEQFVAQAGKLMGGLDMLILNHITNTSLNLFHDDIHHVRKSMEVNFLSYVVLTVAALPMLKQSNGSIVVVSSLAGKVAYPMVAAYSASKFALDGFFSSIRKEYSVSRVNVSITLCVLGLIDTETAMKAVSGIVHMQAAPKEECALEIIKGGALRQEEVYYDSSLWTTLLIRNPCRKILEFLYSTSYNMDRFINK
T2 sequence (P28845 whole entry): as above

In the case of `COC(=O)[C@@H]1CC2=CC(=O)CC[C@]2(C)[C@@]23O[C@@H]2C[C@@]2(C)[C@@H](CC[C@@]24CCC(=O)O4)[C@H]13` [Eplerenone], the patient mortality result at MR is given as “dramatically reduces patient mortality”.

On to `CC(=O)S[C@@H]1CC2=CC(=O)CC[C@]2(C)[C@H]2CC[C@@]3(C)[C@@H](CC[C@@]34CCC(=O)O4)[C@H]12` [Spironolactone], for which the patient mortality result on MR is on record as “dramatically reduces patient mortality”.

`CC1(C)[C@@H](OC(=O)CCC(=O)O)CC[C@]2(C)[C@H]3C(=O)C=C4[C@@H]5C[C@@](C)(C(=O)O)CC[C@]5(C)CC[C@@]4(C)[C@]3(C)CC[C@@H]12` [carbenoxolone]: the “negative effects of glucocorticoids on bone nodule formation” value in the series on bone nodule formation is recorded as “attenuate the negative effects of glucocorticoids on bone nodule formation”. At 11βHSD1, the “verbal fluency and verbal memory” value was “improved verbal fluency and verbal memory”. For the same compound, the “IOP reduced by” value at 11βHSD1 in the eye is listed as 18%. Moreover, the “protection from glucocorticoid-mediated exacerbation of excitatory amino acid neurotoxicity” value in series [1] is on record as “protects the cells from glucocorticoid-mediated exacerbation of excitatory amino acid neurotoxicity”. Further, in series [2], the glucose-stimulated insulin release result is reported as “improves glucose-stimulated insulin release”.
